The text below walks through data of ChEMBL document CHEMBL1201862, “PubChem BioAssay data set” (2004).

Some test systems named below: MDA-N; HCT-15; SN12C; UACC-62; SNB-19; NCI-H522; TK-10; EKVX; NCI-H23; U-251; SF-295; SW-620; PC-3; OVCAR-3; Hs-578T; OVCAR-4; UACC-257; Malme-3M; A549.
Assay in all cases: growth of human tumour cells (NCI), 48 h

The structures appear in SMILES notation.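 Growth conditions: 96-well plates. Treatment: test compound, 48 hours, 5 concentrations. Analysis: linear interpolation between bracketing concentrations; unreached endpoints set to highest concentration. The concentration for 50% growth inhibition is given as GI50.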 Calls of active or inactive are those of the source. Rule as the data show it: active = GI50 up to about 1.1 µM and inactive = higher.

With `Cc1ccc(-c2cn3c(nc4ccccc43)c(C)n2)cc1`, the GI50 was 54.1 µM (inactive) with MDA-N; 25.2 µM in the assay with HCT-15; 55.6 µM (inactive) with SN12C; 23.5 µM (inactive) in the assay on UACC-62; 66.2 µM (inactive) with SNB-19; 31.2 µM (inactive) in the assay on NCI-H522. Also, the GI50 in the assay on TK-10 was 43.9 µM (inactive); with EKVX, > 54 µM (inactive); in the assay on NCI-H23, 22.6 µM (inactive); in the assay on U-251 it was 32.4 µM (inactive); in the assay on SF-295 it was > 58.1 µM (inactive); in the assay with SW-620, > 100 µM (inactive). For the same compound, the GI50 in the assay with PC-3 was 46.6 µM (inactive); in the assay on OVCAR-3, 48 µM (inactive); with Hs-578T, 51.3 µM (inactive); in the assay on OVCAR-4 it was 59 µM (inactive); in the assay on UACC-257, > 100 µM (inactive); with Malme-3M it was 37.6 µM (inactive). For the same compound, in the assay with A549, the GI50 was 55.1 µM (inactive).
`COC(=O)C12CCC(C(=O)OC)(Cc3c(c4ccccc4n3S(=O)(=O)c3ccccc3)C1)C2=O` (stereo unspecified): the GI50 in the assay on MDA-N was > 100 µM (inactive); in the assay with HCT-15, above 100 µM; with SN12C, > 100 µM (inactive); with UACC-62, > 40.5 µM (inactive); with SNB-19, > 56.4 µM (inactive); with NCI-H522, 20 µM (inactive). Moreover, the GI50 is > 56.2 µM (inactive) in the assay with TK-10; > 100 µM (inactive) in the assay on EKVX; > 100 µM (inactive) with NCI-H23; > 100 µM (inactive) in the assay with U-251; > 51.1 µM (inactive) in the assay with SF-295; > 100 µM (inactive) in the assay on SW-620. In addition, the GI50 in the assay on PC-3 is > 63.5 µM (inactive); in the assay with OVCAR-3, > 61.8 µM (inactive); in the assay on Hs-578T, > 46.6 µM (inactive); in the assay with OVCAR-4, > 61.7 µM (inactive); in the assay with UACC-257, > 64.1 µM (inactive); in the assay on Malme-3M it was 36.1 µM (inactive). Moreover, the GI50 in the assay with A549 was > 46 µM (inactive).
In the case of `Cc1nc(-c2ccccc2)cn2c1nc1ccccc12`, the GI50 was 21.8 µM (inactive) in the assay with MDA-N; 16.4 µM with HCT-15; 29.7 µM (inactive) in the assay on SN12C; 14.7 µM (inactive) in the assay with UACC-62; 29.5 µM (inactive) in the assay with SNB-19; 24.9 µM (inactive) with NCI-H522. Also, the GI50 in the assay with TK-10 was 29.3 µM (inactive); in the assay with EKVX it was 25.2 µM (inactive); in the assay on NCI-H23, 25.9 µM (inactive); in the assay with U-251, 18.6 µM (inactive); in the assay with SF-295 it was 23.9 µM (inactive); in the assay with SW-620 it was 27.7 µM (inactive). Also, the GI50 with PC-3 is 24.7 µM (inactive); with OVCAR-3, 26.7 µM (inactive); in the assay on Hs-578T it was 35.4 µM (inactive); with OVCAR-4, 20.9 µM (inactive); in the assay with UACC-257 it was 29 µM (inactive); with Malme-3M, 23.9 µM (inactive). The GI50 with A549 was 19.4 µM (inactive).
As for `COc1ccc(/C=N/c2ccc(-c3nc4ccccc4s3)cc2)cc1OC`, the GI50 is 30.9 µM (inactive) with MDA-N; 31.8 µM with HCT-15; 25.7 µM (inactive) in the assay with SN12C; 20 µM (inactive) with UACC-62; 54.1 µM (inactive) with SNB-19; 16.7 µM (inactive) in the assay on NCI-H522. Also, the GI50 was 28.6 µM (inactive) with TK-10; 32.9 µM (inactive) in the assay on EKVX; 27.1 µM (inactive) with NCI-H23; 30.3 µM (inactive) with U-251; 25.4 µM (inactive) in the assay on SF-295; 34.8 µM (inactive) in the assay with SW-620. The GI50 with PC-3 is 22.6 µM (inactive); with OVCAR-3 it was 13.4 µM (inactive); with Hs-578T it was 24.5 µM (inactive); in the assay on OVCAR-4, 34.3 µM (inactive); in the assay with UACC-257, 22.7 µM (inactive); in the assay with Malme-3M, 30 µM (inactive). For the same compound, the GI50 in the assay on A549 was 36.5 µM (inactive).
